Where a SMILES comes first, the peptide text is derived from it. Bridges are numbered along the chain shown (N, C = ends). [ ]: non-standard residue; d: D form. ξ: configuration not given here. Bip(2'-Et-4'-OMe) = CCc1cc(OC)ccc1-c1ccc(C[C@H](N)C(=O)O)cc1; αMePhe(2,6-F2) = C[C@](N)(Cc1c(F)cccc1F)C(=O)O; ξαMePhe(2,6-F2) = CC(N)(Cc1c(F)cccc1F)C(=O)O; Bip = N[C@@H](Cc1ccc(-c2ccccc2)cc1)C(=O)O; αMePhe(2-F) = C[C@](N)(Cc1ccccc1F)C(=O)O; hhPhe = N[C@@H](CCCc1ccccc1)C(=O)O; αMeF = C[C@](N)(Cc1ccccc1)C(=O)O; ξαMeF = CC(N)(Cc1ccccc1)C(=O)O; Pen = CC(C)(S)[C@H](N)C(=O)O; Aib = CC(C)(N)C(=O)O
These molecules were tested against Glucagon-like peptide 1 receptor (Homo sapiens, UniProt P43220) (assay: Agonist activity at human GLP-1R expressed in CHO-K1 cells assessed as increase in cAMP level incubated for 30 mins).
Glucagon-like peptide 1 receptor, sequence (P43220 whole entry): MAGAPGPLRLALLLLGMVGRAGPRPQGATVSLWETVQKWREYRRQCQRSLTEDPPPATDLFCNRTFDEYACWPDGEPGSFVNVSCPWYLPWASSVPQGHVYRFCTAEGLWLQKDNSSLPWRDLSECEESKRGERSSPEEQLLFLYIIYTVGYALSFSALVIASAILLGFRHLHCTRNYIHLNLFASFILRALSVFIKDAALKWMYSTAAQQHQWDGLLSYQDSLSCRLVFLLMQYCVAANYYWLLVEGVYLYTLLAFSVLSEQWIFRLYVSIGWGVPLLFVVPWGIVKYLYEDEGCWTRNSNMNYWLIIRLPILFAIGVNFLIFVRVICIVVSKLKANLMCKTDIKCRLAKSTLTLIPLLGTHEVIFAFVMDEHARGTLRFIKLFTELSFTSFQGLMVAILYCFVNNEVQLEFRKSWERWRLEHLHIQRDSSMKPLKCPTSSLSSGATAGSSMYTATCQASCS
Type: functional, cell-based

CCc1cc(OC)ccc1-c1ccc(C[C@H](NC(=O)[C@H](CC(=O)O)NC(=O)[C@H](CS)NC(=O)[C@@H](NC(=O)[C@](C)(Cc2ccccc2F)NC(=O)[C@@H](NC(=O)CNC(=O)[C@H](CCC(=O)O)NC(=O)C(C)(C)NC(=O)[C@@H](N)Cc2cnc[nH]2)[C@@H](C)O)[C@@H](C)O)C(=O)N[C@@H](CCCc2ccccc2)C(=O)N[C@H](CS)C(N)=O)cc1 and CCc1cc(OC)ccc1-c1ccc(C[C@H](NC(=O)[C@H](CC(=O)O)NC(=O)[C@H](CO)NC(=O)[C@@H](NC(=O)[C@](C)(Cc2ccccc2F)NC(=O)[C@H](CS)NC(=O)CNC(=O)[C@H](CCC(=O)O)NC(=O)C(C)(C)NC(=O)[C@@H](N)Cc2cnc[nH]2)[C@@H](C)O)C(=O)N[C@@H](CCCc2ccccc2)C(=O)N[C@H](CS)C(N)=O)cc1 cannot be ordered by EC50: 1150 nM for the first, greater than 1000 nM for the second.

Compared with CCc1cc(OC)ccc1-c1ccc(C[C@@H]2NC(=O)[C@H](CC(=O)O)NC(=O)[C@H](CO)NC(=O)[C@@H]3CSSC[C@@H](C(=O)O)NC(=O)[C@H](CSSC[C@H](NC(=O)CNC(=O)[C@H](CCC(=O)O)NC(=O)C(C)(C)NC(=O)[C@H](Cc4cnc[nH]4)NC(C)=O)C(=O)N[C@@](C)(Cc4c(F)cccc4F)C(=O)N3)NC(=O)[C@H](CC(C)C)NC(=O)[C@H](CCCc3ccccc3)NC2=O)cc1 (Ac-H[Aib]EGC[αMePhe(2,6-F2)]CSD[Bip(2'-Et-4'-OMe)][hhPhe]LCC-OH; disulfide 5-13, 7-14), CCc1cc(OC)ccc1-c1ccc(C[C@@H]2NC(=O)[C@H](CC(=O)O)NC(=O)[C@H](CO)NC(=O)[C@@H]3CSSC[C@@H](C(=O)O)NC(=O)[C@H](CSSC[C@H](NC(=O)CNC(=O)[C@H](CCC(=O)O)NC(=O)C(C)(C)NC(=O)[C@@H](N)Cc4cnc[nH]4)C(=O)NC(C)(Cc4c(F)cccc4F)C(=O)N3)NC(=O)[C@H](CC(C)C)NC(=O)[C@H](CCCc3ccccc3)NC2=O)cc1 (stereo partly specified) (H-H[Aib]EGC[ξαMePhe(2,6-F2)]CSD[Bip(2'-Et-4'-OMe)][hhPhe]LCC-OH; disulfide 5-13, 7-14) is 6.2-fold higher in EC50: 69 nM for the first, 430 nM for the second.

First: CCc1cc(OC)ccc1-c1ccc(C[C@H](NC(=O)[C@H](CC(=O)O)NC(=O)[C@H](CO)NC(=O)[C@@H](NC(=O)[C@](C)(Cc2ccccc2)NC(=O)[C@@H](NC(=O)CNC(=O)[C@H](CCC(=O)O)NC(=O)[C@@H]2CCCN2C(=O)[C@@H](N)Cc2cnc[nH]2)[C@@H](C)O)[C@@H](C)O)C(=O)N[C@@H](CCCc2ccccc2)C(=O)N[C@H]2CSSC[C@@H](C(=O)N[C@@H](CO)C(=O)O)NC(=O)[C@H](CC(C)C)NC(=O)[C@H](CC(C)C)NC(=O)CNC(=O)[C@H](CC(C)C)NC(=O)[C@H](CC(C)C)NC(=O)[C@H](CC(C)C)NC(=O)CNC(=O)CNC2=O)cc1 (H-HPEGT[αMeF]TSD[Bip(2'-Et-4'-OMe)][hhPhe]CGGLLLGLLCS-OH; disulfide 12-21)
Second: CCc1cc(OC)ccc1-c1ccc(C[C@H](NC(=O)[C@H](CC(=O)O)NC(=O)[C@H](CO)NC(=O)[C@@H](NC(=O)[C@](C)(Cc2c(F)cccc2F)NC(=O)[C@@H](NC(=O)CNC(=O)[C@H](CCC(=O)O)NC(=O)[C@@H]2CCCN2C(=O)[C@@H](N)Cc2cnc[nH]2)[C@@H](C)O)[C@@H](C)O)C(=O)N[C@@H](CCCc2ccccc2)C(=O)N[C@H]2CSSC[C@@H](C(=O)N[C@@H](CO)C(=O)O)NC(=O)[C@H](C(C)C)NC(=O)[C@H](C(C)C)NC(=O)CNC(=O)[C@H](C(C)C)NC(=O)[C@H](C(C)C)NC(=O)[C@H](C(C)C)NC(=O)CNC(=O)CNC2=O)cc1 (H-HPEGT[αMePhe(2,6-F2)]TSD[Bip(2'-Et-4'-OMe)][hhPhe]CGGVVVGVVCS-OH; disulfide 12-21)
The EC50 of the first is 6.8-fold higher: 130 nM for the first, 19 nM for the second.

First: CCc1cc(OC)ccc1-c1ccc(C[C@H](NC(=O)[C@H](CC(=O)O)NC(=O)[C@H](CO)NC(=O)[C@@H](NC(=O)[C@](C)(Cc2ccccc2)NC(=O)[C@@H](NC(=O)CNC(=O)[C@H](CCC(=O)O)NC(=O)[C@@H]2CCCN2C(=O)[C@@H](N)Cc2cnc[nH]2)[C@@H](C)O)[C@@H](C)O)C(=O)N[C@@H](CCCc2ccccc2)C(=O)N[C@H]2CSSC[C@@H](C(=O)N[C@@H](CO)C(=O)O)NC(=O)[C@H](C)NC(=O)CNC(=O)CNC(=O)CNC(=O)[C@H](C)NC(=O)[C@H](C)NC(=O)[C@H](Cc3ccc(-c4ccccc4)cc3)NC(=O)CNC2=O)cc1 (H-HPEGT[αMeF]TSD[Bip(2'-Et-4'-OMe)][hhPhe]CG[Bip]AAGGGACS-OH; disulfide 12-21)
Second: CCc1cc(OC)ccc1-c1ccc(C[C@H](NC(=O)[C@H](CC(=O)O)NC(=O)[C@H](CO)NC(=O)[C@@H](NC(=O)[C@](C)(Cc2c(F)cccc2F)NC(=O)[C@@H](NC(=O)CNC(=O)[C@H](CCC(=O)O)NC(=O)[C@@H]2CCCN2C(=O)[C@@H](N)Cc2cnc[nH]2)[C@@H](C)O)[C@@H](C)O)C(=O)N[C@@H](CCCc2ccccc2)C(=O)N[C@H]2CSSC[C@@H](C(=O)N[C@@H](CO)C(=O)O)NC(=O)[C@H](C)NC(=O)CNC(=O)CNC(=O)CNC(=O)[C@H](C)NC(=O)[C@H](C)NC(=O)[C@H](Cc3ccc(-c4ccccc4)cc3)NC(=O)CNC2=O)cc1 (H-HPEGT[αMePhe(2,6-F2)]TSD[Bip(2'-Et-4'-OMe)][hhPhe]CG[Bip]AAGGGACS-OH; disulfide 12-21)
The EC50 of the first is 20-fold higher: 47 nM for the first, 2.4 nM for the second.

Compared with CCc1cc(OC)ccc1-c1ccc(C[C@H](NC(=O)[C@H](CC(=O)O)NC(=O)[C@H](CO)NC(=O)[C@@H](NC(=O)[C@](C)(Cc2c(F)cccc2F)NC(=O)[C@@H](NC(=O)CNC(=O)[C@H](CCC(=O)O)NC(=O)[C@@H]2CCCN2C(=O)[C@@H](N)Cc2cnc[nH]2)[C@@H](C)O)[C@@H](C)O)C(=O)N[C@@H](CCCc2ccccc2)C(=O)N[C@H]2CSSC[C@@H](C(=O)N[C@@H](CO)C(N)=O)NC(=O)[C@H](C)NC(=O)CNC(=O)CNC(=O)CNC(=O)[C@H](C)NC(=O)[C@H](C)NC(=O)CNC(=O)CNC2=O)cc1 (H-HPEGT[αMePhe(2,6-F2)]TSD[Bip(2'-Et-4'-OMe)][hhPhe]CGGAAGGGACS-NH2; disulfide 12-21), CCc1cc(OC)ccc1-c1ccc(C[C@H](NC(=O)[C@H](CC(=O)O)NC(=O)[C@H](CO)NC(=O)[C@@H](NC(=O)[C@](C)(Cc2c(F)cccc2F)NC(=O)[C@@H](NC(=O)CNC(=O)[C@H](CCC(=O)O)NC(=O)[C@@H]2CCCN2C(=O)[C@@H](N)Cc2cnc[nH]2)[C@@H](C)O)[C@@H](C)O)C(=O)N[C@@H](CCCc2ccccc2)C(=O)N[C@H]2CSSC[C@@H](C(=O)N[C@@H](CO)C(=O)O)NC(=O)[C@H](C)NC(=O)CNC(=O)CNC(=O)CNC(=O)[C@H](C)NC(=O)[C@H](C)NC(=O)CNC(=O)CNC2=O)cc1 (H-HPEGT[αMePhe(2,6-F2)]TSD[Bip(2'-Et-4'-OMe)][hhPhe]CGGAAGGGACS-OH; disulfide 12-21) is 15-fold lower in EC50: 13 nM for the first, 0.85 nM for the second. The second is the more potent here.

Going from CCc1cc(OC)ccc1-c1ccc(C[C@H](NC(=O)[C@H](CC(=O)O)NC(=O)[C@H](CO)NC(=O)[C@@H](NC(=O)[C@](C)(Cc2c(F)cccc2F)NC(=O)[C@@H](NC(=O)CNC(=O)[C@H](CCC(=O)O)NC(=O)[C@@H]2CCCN2C(=O)[C@@H](N)Cc2cnc[nH]2)[C@@H](C)O)[C@@H](C)O)C(=O)N[C@@H](CCCc2ccccc2)C(=O)N[C@H](C(=O)NCC(=O)NCC(=O)N[C@@H](C)C(=O)N[C@@H](C)C(=O)NCC(=O)NCC(=O)NCC(=O)N[C@@H](C)C(=O)N[C@H](C(=O)N[C@@H](CO)C(=O)O)C(C)(C)S)C(C)(C)S)cc1 (H-HPEGT[αMePhe(2,6-F2)]TSD[Bip(2'-Et-4'-OMe)][hhPhe][Pen]GGAAGGGA[Pen]S-OH) to CCc1cc(OC)ccc1-c1ccc(C[C@H](NC(=O)[C@H](CC(=O)O)NC(=O)[C@H](CO)NC(=O)[C@@H](NC(=O)[C@](C)(Cc2ccccc2F)NC(=O)[C@@H](NC(=O)CNC(=O)[C@H](CCC(=O)O)NC(=O)[C@@H]2CCCN2C(=O)[C@@H](N)Cc2cnc[nH]2)[C@@H](C)O)[C@@H](C)O)C(=O)N[C@@H](CCCc2ccccc2)C(=O)N[C@H]2CSSC[C@@H](C(=O)N[C@@H](CO)C(=O)O)NC(=O)[C@H](C)NC(=O)CNC(=O)CNC(=O)CNC(=O)[C@H](C)NC(=O)[C@H](C)NC(=O)CNC(=O)CNC2=O)cc1 (H-HPEGT[αMePhe(2-F)]TSD[Bip(2'-Et-4'-OMe)][hhPhe]CGGAAGGGACS-OH; disulfide 12-21), the EC50 falls from 2.5 nM to 1 nM (2.5-fold).

First: CCc1cc(OC)ccc1-c1ccc(C[C@@H]2NC(=O)[C@H](CC(=O)O)NC(=O)[C@H](CO)NC(=O)[C@@H]3CSSC[C@@H](C(=O)O)NC(=O)[C@H](CSSC[C@H](NC(=O)CNC(=O)[C@H](CCC(=O)O)NC(=O)C(C)(C)NC(=O)[C@@H](N)Cc4cnc[nH]4)C(=O)N[C@@H](Cc4ccccc4)C(=O)N3)NC(=O)[C@H](CC(C)C)NC(=O)[C@H](CCCc3ccccc3)NC2=O)cc1 (H-H[Aib]EGCFCSD[Bip(2'-Et-4'-OMe)][hhPhe]LCC-OH; disulfide 5-13, 7-14)
Second: CCc1cc(OC)ccc1-c1ccc(C[C@@H]2NC(=O)[C@H](CC(=O)O)NC(=O)[C@H](CO)NC(=O)[C@@H]3CSSC[C@@H](C(=O)O)NC(=O)[C@H](CSSC[C@H](NC(=O)CNC(=O)[C@H](CCC(=O)O)NC(=O)C(C)(C)NC(=O)[C@@H](N)Cc4cnc[nH]4)C(=O)NC(C)(Cc4ccccc4)C(=O)N3)NC(=O)[C@H](CC(C)C)NC(=O)[C@H](CCCc3ccccc3)NC2=O)cc1 (stereo partly specified) (H-H[Aib]EGC[ξαMeF]CSD[Bip(2'-Et-4'-OMe)][hhPhe]LCC-OH; disulfide 5-13, 7-14)
The EC50 of the first is 10-fold higher: 16000 nM for the first, 1600 nM for the second.

Going from CCc1cc(OC)ccc1-c1ccc(C[C@@H]2NC(=O)[C@H](CC(=O)O)NC(=O)[C@H](CO)NC(=O)[C@@H]3CSSC[C@@H](C(=O)O)NC(=O)[C@H](CSSC[C@H](NC(=O)CNC(=O)[C@H](CCC(=O)O)NC(=O)C(C)(C)NC(=O)[C@@H](N)Cc4cnc[nH]4)C(=O)N[C@@](C)(Cc4c(F)cccc4F)C(=O)N3)NC(=O)[C@H](Cc3ccc(-c4ccccc4)cc3)NC(=O)[C@H](CCCc3ccccc3)NC2=O)cc1 (H-H[Aib]EGC[αMePhe(2,6-F2)]CSD[Bip(2'-Et-4'-OMe)][hhPhe][Bip]CC-OH; disulfide 5-13, 7-14) to CCc1cc(OC)ccc1-c1ccc(C[C@H](NC(=O)[C@H](CS)NC(=O)[C@H](CO)NC(=O)[C@@H](NC(=O)[C@](C)(Cc2ccccc2F)NC(=O)[C@H](CS)NC(=O)CNC(=O)[C@H](CCC(=O)O)NC(=O)C(C)(C)NC(=O)[C@@H](N)Cc2cnc[nH]2)[C@@H](C)O)C(=O)N[C@@H](CCCc2ccccc2)C(N)=O)cc1 (H-H[Aib]EGC[αMePhe(2-F)]TSC[Bip(2'-Et-4'-OMe)][hhPhe]-NH2), the EC50 falls from 7500 nM to 850 nM (8.8-fold).
